Results reported in patent US12077503B2, “Substituted cyclic amides and their use as herbicides” (FMC CORPORATION, priority 2015, dated 2024).

Columns and labels:
Assay type in all cases: in vivo
[1] = system: ducksalad (Heteranthera limosa); test: Test B flooded paddy test; conditions: Flood, 0 to 100 scale where 0 is no effect and 100 is complete control, 13 to 15 d
Outline: (§1)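 Rating scale 0–100 (visual, vs untreated controls) after a 13–15 d greenhouse period; application to the flood layer, 3 cm above soil and maintained; plants at 2-leaf stage when treated.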

rice (Oryra sativa) = test: Test B flooded paddy test; conditions: Flood, 0 to 100 scale where 0 is no effect and 100 is complete control, 13 to 15 d
Outline: as §1

[2] = system: sedge, umbrella (small-flower umbrella sedge, Cyperus difformis); test: Test B flooded paddy test; conditions: Flood, 0 to 100 scale where 0 is no effect and 100 is complete control, 13 to 15 d
Outline: as §1

[3] = system: barnyardgrass (Echinochloa crus-galli); test: Test B flooded paddy test; conditions: Flood, 0 to 100 scale where 0 is no effect and 100 is complete control, 13 to 15 d
Outline: as §1

[4] = system: giant foxtail (Setaria faberii); test: Test A preemergence; conditions: for Foxtail, Giant plant response rating (0 to 100 scale, 0 is no effect, 100 is complete control): visual injury approx. 10 d
Outline: (§2)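 Visual injury, scored on a 0–100 scale relative to untreated controls, was recorded about 10 d after application. Treatments were a preemergence soil spray over planted seeds or a postemergence spray on plants at the one- to two-leaf stage, 2 to 10 cm tall, all in loam soil–sand blend in the greenhouse.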

[5] = system: ragweed (common ragweed, Ambrosia elatior); test: Test A preemergence; conditions: for Ragweed plant response rating (0 to 100 scale, 0 is no effect, 100 is complete control): visual injury approx. 10 d
Outline: as §2

[6] = system: ryegrass, Italian (Italian ryegrass, Lolium multiflorum); test: Test A preemergence; conditions: for Ryegrass, Italian plant response rating (0 to 100 scale, 0 is no effect, 100 is complete control): visual injury approx. 10 d
Outline: as §2

Kochia (Kochia scoparia) [7] = test: Test A preemergence; conditions: for Kochia plant response rating (0 to 100 scale, 0 is no effect, 100 is complete control): visual injury approx. 10 d
Outline: as §2

[8] = system: barnyardgrass (Echinochloa crus-galli); test: Test A preemergence; conditions: for Barnyardgrass plant response rating (0 to 100 scale, 0 is no effect, 100 is complete control): visual injury approx. 10 d
Outline: as §2

[9] = system: pigweed (Amaranthus retroflexus); test: Test A preemergence; conditions: for Pigweed plant response rating (0 to 100 scale, 0 is no effect, 100 is complete control): visual injury approx. 10 d
[10] = system: giant foxtail (Setaria faberii); test: Test A postemergence
Outline: as §2

[11] = system: ragweed (common ragweed, Ambrosia elatior); test: Test A postemergence
Outline: as §2

[12] = system: wheat (Triticum aestivum); test: Test A postemergence
Outline: as §2

[13] = system: ryegrass, Italian (Italian ryegrass, Lolium multiflorum); test: Test A postemergence
Outline: as §2

Kochia (Kochia scoparia) [14] = test: Test A postemergence
Outline: as §2

[15] = system: blackgrass (Alopecurus myosuroides); test: Test A postemergence; conditions: for Blackgrass plant response rating: visual injury rating on 0 to 100 scale (0 no effect, 100 complete control)
Outline: as §2

[16] = system: Galium (catchweed bedstraw, Galium aparine); test: Test A postemergence
Outline: as §2

[17] = system: barnyardgrass (Echinochloa crus-galli); test: Test A postemergence; conditions: for Barnyardgrass plant response rating: visual injury rating on 0 to 100 scale (0 no effect, 100 complete control)
Outline: as §2

corn (Zea mays) = test: Test A postemergence
Outline: as §2

[18] = system: pigweed (Amaranthus retroflexus); test: Test A postemergence
Outline: as §2

[19] = 125 g ai/ha, Preemergence, visual injury after approximately 10 d, 0 to 100 scale where 0 is no effect and 100 is complete control
[20] = 125 g ai/ha, postemergence, visual rating after approx. 10 d, 0 to 100 scale (0 no effect, 100 complete control)
[21] = Postemergence, 500 g ai/ha, 0 to 100 scale where 0 is no effect and 100 is complete control
[22] = 125 g ai/ha, postemergence, approx. 10 d
[23] = 500 g ai/ha, preemergence, 0 to 100 scale, 0 = no effect, 100 = complete control
[24] = 500 g ai/ha, postemergence, visual injury, 0 to 100 scale (0 no effect, 100 complete control), approx. 10 d

SMILES | Plant response rating, Foxtail, Giant [4, 19] | Foxtail, Giant plant response rating (0 to 100 scale, 0 is no effect, 100 is complete control) ([4]; Preemergence, 500 g ai/ha) | Plant response rating, Ragweed [5, 19] | Plant response rating, Ryegrass, Italian [6, 19] | Ryegrass, Italian plant response rating (0 to 100 scale, 0 is no effect, 100 is complete control) ([6]; Preemergence, 500 g ai/ha) | Plant response rating, Kochia (Kochia (Kochia scoparia) [7]; [19]) | Plant response rating, Barnyardgrass [8, 19] | Plant response rating, Pigweed [9, 19] | Plant response rating, Foxtail, Giant [10, 20] | Plant response rating, Ragweed [11, 20] | Plant response rating, Wheat [12, 20] | Plant response rating, Ryegrass, Italian [13, 20] | Plant response rating, Kochia (Kochia (Kochia scoparia) [14]; [20]) | Plant response rating, Galium [16, 20] | Plant response rating, Corn (corn (Zea mays); [20]) | Plant response rating, Pigweed [18, 20] | Plant response rating, Ducksalad ([1]; 250 g ai/ha) | Plant response rating, Rice (rice (Oryra sativa); 250 g ai/ha) | Plant response rating, Sedge, Umbrella ([2]; 250 g ai/ha) | Plant response rating, Barnyardgrass ([3]; 250 g ai/ha) | other results
O=C1NCC(c2ccc(Oc3ccccc3)cc2)C1C(=O)Nc1ccc(F)cc1F (racemic) [Compound 535] | 0 | 0 | 0 | 0 | 0 | 0 | 0 | 0 | 0 | 0 | 0 | 0 | 0 | 0 | 0 | 0 | – | – | – | – | Plant response rating, Ducksalad ([1]; 500 g ai/ha): 20; Plant response rating, Rice (rice (Oryra sativa); 500 g ai/ha): 0; Plant response rating, Sedge, Umbrella ([2]; 500 g ai/ha): 50; Plant response rating, Barnyardgrass ([3]; 500 g ai/ha): 0; Ragweed plant response rating (0 to 100 scale, 0 is no effect, 100 is complete control) ([5]; Preemergence, 500 g ai/ha): 0; Kochia plant response rating (0 to 100 scale, 0 is no effect, 100 is complete control) (Kochia (Kochia scoparia) [7]; Preemergence, 500 g ai/ha): 0; Barnyardgrass plant response rating (0 to 100 scale, 0 is no effect, 100 is complete control) ([8]; Preemergence, 500 g ai/ha): 0; Pigweed plant response rating (0 to 100 scale, 0 is no effect, 100 is complete control) ([9]; Preemergence, 500 g ai/ha): 0; Plant response rating, Foxtail, Giant [10, 21]: 0; Plant response rating, Ragweed [11, 21]: 0; Plant response rating, Wheat [12, 21]: 0; Plant response rating, Ryegrass, Italian [13, 21]: 0; Plant response rating, Kochia (Kochia (Kochia scoparia) [14]; [21]): 0; Blackgrass plant response rating [15, 22]: 0; Plant response rating, Blackgrass [15, 21]: 0; Plant response rating, Galium [16, 21]: 0; Barnyardgrass plant response rating [17, 22]: 0; Plant response rating, Barnyardgrass [17, 21]: 0; Plant response rating, Corn (corn (Zea mays); [21]): 0; Plant response rating, Pigweed [18, 21]: 0
COc1c(F)ccc(NC(=O)C2C(=O)NCC2c2cccc(OC(F)(F)C(F)F)c2)c1F (racemic) [Compound 540] | 90 | 90 | 0 | 0 | 40 | 0 | 80 | 0 | 70 | 0 | 0 | 0 | 0 | 60 | 30 | 0 | 75 | 0 | 0 | 55 | Kochia plant response rating (0 to 100 scale, 0 is no effect, 100 is complete control) (Kochia (Kochia scoparia) [7]; Preemergence, 500 g ai/ha): 20; Barnyardgrass plant response rating (0 to 100 scale, 0 is no effect, 100 is complete control) ([8]; Preemergence, 500 g ai/ha): 90; Pigweed plant response rating (0 to 100 scale, 0 is no effect, 100 is complete control) ([9]; Preemergence, 500 g ai/ha): 60; Plant response rating, Foxtail, Giant [10, 21]: 90; Plant response rating, Ragweed [11, 21]: 20; Plant response rating, Wheat [12, 21]: 60; Plant response rating, Ryegrass, Italian [13, 21]: 30; Plant response rating, Kochia (Kochia (Kochia scoparia) [14]; [21]): 0; Blackgrass plant response rating [15, 22]: 50; Plant response rating, Blackgrass [15, 21]: 60; Plant response rating, Galium [16, 21]: 70; Barnyardgrass plant response rating [17, 22]: 60; Plant response rating, Barnyardgrass [17, 21]: 70; Plant response rating, Corn (corn (Zea mays); [21]): 60; Plant response rating, Pigweed [18, 21]: 0
O=C1NCC(c2cc(F)ccc2F)C1C(=O)Nc1ccccc1F (racemic) [Compound 544] | 70 | 90 | 0 | 0 | 0 | 0 | 30 | 0 | 0 | 0 | 0 | 0 | 0 | 0 | 0 | 0 | 45 | 0 | 0 | 25 | Ragweed plant response rating (0 to 100 scale, 0 is no effect, 100 is complete control) ([5]; Preemergence, 500 g ai/ha): 0; Kochia plant response rating (0 to 100 scale, 0 is no effect, 100 is complete control) (Kochia (Kochia scoparia) [7]; Preemergence, 500 g ai/ha): 0; Barnyardgrass plant response rating (0 to 100 scale, 0 is no effect, 100 is complete control) ([8]; Preemergence, 500 g ai/ha): 80; Pigweed plant response rating (0 to 100 scale, 0 is no effect, 100 is complete control) ([9]; Preemergence, 500 g ai/ha): 0; Plant response rating, Foxtail, Giant [10, 21]: 60; Plant response rating, Ragweed [11, 21]: 0; Plant response rating, Wheat [12, 21]: 0; Plant response rating, Ryegrass, Italian [13, 21]: 0; Plant response rating, Kochia (Kochia (Kochia scoparia) [14]; [21]): 0; Blackgrass plant response rating [15, 22]: 0; Plant response rating, Blackgrass [15, 21]: 0; Plant response rating, Galium [16, 21]: 0; Barnyardgrass plant response rating [17, 22]: 20; Plant response rating, Barnyardgrass [17, 21]: 70; Plant response rating, Corn (corn (Zea mays); [21]): 20; Plant response rating, Pigweed [18, 21]: 0
O=C1NCC(c2csc(Br)c2)C1C(=O)Nc1cccc(F)c1F (racemic) [Compound 649] | 50 | – | 20 | 30 | – | 60 | 80 | 50 | 30 | 20 | 0 | 30 | 30 | 50 | 0 | 0 | 100 | 0 | 0 | 60 | Plant response rating, Foxtail, Giant [4, 23]: 70; Plant response rating, Ragweed [5, 23]: 70; Plant response rating, Ryegrass, Italian [6, 23]: 70; Plant response rating, Kochia (Kochia (Kochia scoparia) [7]; [23]): 70; Plant response rating, Barnyardgrass [8, 23]: 90; Plant response rating, Pigweed [9, 23]: 60; Plant response rating, Foxtail, Giant [10, 24]: 60; Plant response rating, Ragweed [11, 24]: 60; Plant response rating, Wheat [12, 24]: 0; Plant response rating, Ryegrass, Italian [13, 24]: 40; Plant response rating, Kochia (Kochia (Kochia scoparia) [14]; [24]): 60; Plant response rating, Blackgrass [15, 20]: 20; Plant response rating, Blackgrass [15, 24]: 60; Plant response rating, Galium [16, 24]: 70; Plant response rating, Barnyardgrass [17, 20]: 60; Plant response rating, Barnyardgrass [17, 24]: 70; Plant response rating, Corn (corn (Zea mays); [24]): 0; Plant response rating, Pigweed [18, 24]: 30
Cc1ccc(C2CNC(=O)C2C(=O)Nc2ccccc2F)cc1C(F)(F)F (racemic) [Compound 654] | 90 | – | 0 | 40 | – | 0 | 90 | 40 | 70 | 0 | 0 | 30 | 20 | 40 | 20 | 0 | 90 | 0 | 0 | 35 | Plant response rating, Foxtail, Giant [4, 23]: 90; Plant response rating, Ragweed [5, 23]: 30; Plant response rating, Ryegrass, Italian [6, 23]: 80; Plant response rating, Kochia (Kochia (Kochia scoparia) [7]; [23]): 40; Plant response rating, Barnyardgrass [8, 23]: 90; Plant response rating, Pigweed [9, 23]: 70; Plant response rating, Foxtail, Giant [10, 24]: 90; Plant response rating, Ragweed [11, 24]: 20; Plant response rating, Wheat [12, 24]: 40; Plant response rating, Ryegrass, Italian [13, 24]: 60; Plant response rating, Kochia (Kochia (Kochia scoparia) [14]; [24]): 50; Plant response rating, Blackgrass [15, 20]: 30; Plant response rating, Blackgrass [15, 24]: 50; Plant response rating, Galium [16, 24]: 60; Plant response rating, Barnyardgrass [17, 20]: 90; Plant response rating, Barnyardgrass [17, 24]: 90; Plant response rating, Corn (corn (Zea mays); [24]): 70; Plant response rating, Pigweed [18, 24]: 20
